Where only a bound is given, the exact number is not on record here.

This experiment has as its target Proto-oncogene tyrosine-protein kinase Src (Homo sapiens, UniProt P12931). The experiment in a line: ChEBML_202783. The procedure: The compound was evaluated for its binding affinity towards phosphotyrosine binding pocket of Src protein tyrosine kinase SH2 domain

Sequence of Proto-oncogene tyrosine-protein kinase Src (P12931 2-536 limits assumed): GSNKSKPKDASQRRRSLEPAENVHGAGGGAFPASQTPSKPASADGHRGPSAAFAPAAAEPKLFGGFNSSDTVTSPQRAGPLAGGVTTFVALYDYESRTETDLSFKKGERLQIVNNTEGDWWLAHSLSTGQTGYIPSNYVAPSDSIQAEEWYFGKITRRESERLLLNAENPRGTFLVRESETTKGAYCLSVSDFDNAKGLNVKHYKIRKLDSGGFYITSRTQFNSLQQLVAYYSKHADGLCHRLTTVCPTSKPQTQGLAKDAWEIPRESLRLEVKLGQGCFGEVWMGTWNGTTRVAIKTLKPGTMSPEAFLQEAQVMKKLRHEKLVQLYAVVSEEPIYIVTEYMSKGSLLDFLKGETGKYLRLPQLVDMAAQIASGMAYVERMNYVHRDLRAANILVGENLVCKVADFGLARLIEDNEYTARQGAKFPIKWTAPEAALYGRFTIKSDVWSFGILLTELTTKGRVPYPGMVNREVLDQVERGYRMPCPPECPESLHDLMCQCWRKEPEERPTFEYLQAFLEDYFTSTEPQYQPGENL

In the case of `O=P(O)(O)C(O)c1cccc2ccccc12` (stereo unspecified) [[hydroxy(naphthalen-1-yl)methyl]phosphonic acid], the IC50 (usually the concentration that inhibits the measured activity by half) is > 5 mM.
